These compounds were tested against T1, Protein-glutamine gamma-glutamyltransferase (Cavia porcellus, UniProt Q7M0F8) (assay: Inhibition of guinea pig liver transglutaminase).
T1 sequence (Q7M0F8 whole entry): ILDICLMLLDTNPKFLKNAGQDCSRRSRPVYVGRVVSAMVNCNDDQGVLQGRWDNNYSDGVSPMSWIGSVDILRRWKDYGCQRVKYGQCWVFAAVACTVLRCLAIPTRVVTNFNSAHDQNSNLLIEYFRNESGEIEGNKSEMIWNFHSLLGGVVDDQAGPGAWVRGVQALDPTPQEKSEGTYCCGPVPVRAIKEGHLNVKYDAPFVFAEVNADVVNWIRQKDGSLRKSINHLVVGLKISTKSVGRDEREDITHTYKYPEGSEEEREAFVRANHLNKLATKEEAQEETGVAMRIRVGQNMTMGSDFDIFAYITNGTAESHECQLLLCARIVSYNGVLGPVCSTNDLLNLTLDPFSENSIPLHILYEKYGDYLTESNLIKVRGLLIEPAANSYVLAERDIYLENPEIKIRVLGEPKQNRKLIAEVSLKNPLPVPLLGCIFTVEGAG

| Structure (SMILES) | IC50 |
| --- | --- |
| CC(C)N(CCC(=O)c1cccs1)Cc1ccccc1 | 1.4 µM |
| CC(C)N(CCO)CCC(=O)c1cc(Cl)sc1Cl | 2.5 µM |
| CCN(CCC(=O)c1cnccn1)Cc1ccccc1 | 0.67 µM |
| CC(C)(C)N(CCC(=O)c1ccccn1)Cc1ccccc1 | 1 µM |
| CC(C)N(CCC(=O)c1cnccn1)Cc1ccccc1 | 0.53 µM |
| O=C(CCN(CCO)Cc1ccccc1)c1cccs1 | 10 µM |
| CC(C)N(CCO)CCC(=O)c1ccc(F)cc1 | 10 µM |
| CN(CCC(=O)c1ccco1)Cc1ccccc1 | 1.8 µM |
| CC(C)(C)N(CCC(=O)c1ccco1)Cc1ccccc1 | 0.65 µM |
| CC(C)(C)N(CCO)CCC(=O)c1ccccn1 | 12 µM |
| CC(C)(C)N(CCC(=O)c1ccncc1)Cc1ccccc1 | 1.4 µM |
| CC(C)(C)N(CCC(=O)c1ccc(Cc2ccccc2)cc1)Cc1ccccc1 | 3.6 µM |
| CCc1nccnc1C(=O)CCN(CCO)Cc1ccccc1 | 18 µM |
| CC(C)N(CCC(=O)c1ccc(Cc2ccccc2)cc1)Cc1ccccc1 | 2.6 µM |
| CN(CCC(=O)c1cccnc1)Cc1ccccc1 | 4 µM |
| CN(CCC(=O)c1cccs1)Cc1ccccc1 | 10 µM |
| CC(C)(C)N(CCC(=O)c1cc2ccccc2s1)Cc1ccccc1 | 0.21 µM |
| CN(CCC(=O)c1ccc(Oc2ccccc2)cc1)Cc1ccccc1 | 18 µM |

| Structure (SMILES) | IC50 |
| --- | --- |
| CCCCN(CCO)CCC(=O)c1cccs1 | 19 µM |
| CC(C)(C)N(CCC(=O)c1cnccn1)Cc1ccccc1 | 0.57 µM |
| O=C(CCN(CCO)Cc1ccccc1)c1nccs1 | 8.5 µM |
| CN(CCO)CCC(=O)c1cccnc1 | 5.2 µM |
| O=C(CCN(CCO)CCO)c1ccncc1 | 3.5 µM |
| O=C(CCN(CCO)CCO)c1ccc2ccccc2c1 | 22 µM |
| CCCCN(CCO)CCC(=O)c1ccccn1 | 10 µM |
| CC(C)N(CCO)CCC(=O)c1ccccc1 | 10 µM |
| Cc1ccc(C(=O)CCN(CCO)CCO)o1 | 6.5 µM |
| CCN(CCC(=O)c1ccc(F)cc1)Cc1ccccc1 | 13 µM |
| CC(C)(C)N(CCO)CCC(=O)c1cnccn1 | 2.7 µM |
| CC(C)(C)N(CCC(=O)c1ccc(Br)s1)Cc1ccccc1 | 0.081 µM |
| CN(CCC(=O)c1ccc(Cc2ccccc2)cc1)Cc1ccccc1 | 26 µM |
| CCN(CCC(=O)c1ccc(C)o1)Cc1ccccc1 | 2.8 µM |
| CC(C)N(CCC(=O)c1ccc(Cl)s1)Cc1ccccc1 | 0.23 µM |
| CN(CCO)CCC(=O)c1ccccn1 | > 30 µM |
| CCc1nccnc1C(=O)CCN(CCO)CCO | 15 µM |

From ChEMBL document CHEMBL1159104, “Potent transglutaminase inhibitors, aryl beta-aminoethyl ketones” (Bioorg Med Chem Lett, 2010)
